The test system of series [1] is Mus musculus. Nature of the series: Compound was evaluated for anticonvulsant activity by maximal electroshock seizure test, intraperitoneally in mice. Format: functional. The settings on record: ip. Background: The maximal electroshock test induces tonic seizures with an electrical stimulus.
Series [2] can be described thus: Neurologic toxicity from rotarod test in mice. The settings on record: mouse, in vivo. Format: organism-based.
The species named for series [3] is Rattus norvegicus. Put plainly: Compound was evaluated for anticonvulsant activity by maximal electroshock seizure test, perorally in rats. In kind it is functional. The settings on record: po.
Series [4] in a line: Neurologic toxicity from rotarod test in rats, perorally. The settings on record: rat, in vivo, po. In kind it is organism-based. (Falling from the rotarod earlier than controls is read as motor impairment.)
Series [5] in a line: Neurologic toxicity from rotarod test in mice; Value ranges from >100 to <300. Format: organism-based. The following applies: mouse, in vivo.
The subject of series [6] is Mus musculus. Nature of the series: Compound was evaluated for anticonvulsant activity by maximal electroshock seizure test, intraperitoneally in mice; Value ranges from >100 to <300. Format: functional. The following applies: ip.
The subject of series [7] is Mus musculus. Put plainly: Compound was evaluated for anticonvulsant activity by maximal electroshock seizure test, intraperitoneally in mice; Value ranges from >100 […]. In kind it is functional. The following applies: ip.
The species named for series [8] is Rattus norvegicus. Nature of the series: Compound was evaluated for anticonvulsant activity by maximal electroshock seizure test, perorally in rats; Value ranges from >100 […]. In kind it is functional. The settings on record: po.
A short description of series [9]: Neurologic toxicity from rotarod test in rats, perorally; Value ranges from >100 to <300. In kind it is organism-based. The settings on record: rat, in vivo, po.
The nature of series [10]: Neurologic toxicity from rotarod test in mice; Value ranges from >100 […]. In kind it is organism-based. The following applies: mouse, in vivo.

Structures are written as SMILES.

Broadly, the ED50 is the dose that gives a 50% effect, or the effect in half of the subjects. Broadly, the TD50 is the 50% point of the dose-response relation for the toxic effect studied. For `CCNCC(=O)Nc1c(C)cccc1C`, the results for the median effective dose (ED50) with Mus musculus [1] and in the series filed under Rattus norvegicus [3] were 18 mg/kg and 11 mg/kg, respectively. For the same molecule, the TD50 is 50 mg/kg in series [2] and more than 500 mg/kg in series [4].
For `Cc1cccc(NC(=O)N(C)C)c1`, the TD50 in series [5] is less than 300 mg/kg; in series [4] it was more than 30 mg/kg.
With `CON(C)C(=O)C(C)NC(=O)OCc1ccccc1` (configuration not stated), the ED50 with Mus musculus [6] is less than 300 mg/kg; in the series filed under Rattus norvegicus [3], approximately 30 mg/kg. Besides, the TD50 is less than 300 mg/kg in [5] and more than 30 mg/kg in series [4].
Regarding `CON(C)C(=O)CNC(=O)OCc1ccccc1`, the TD50 in [2] was 140 mg/kg; in series [4], more than 30 mg/kg.
Consider `CNC(=O)CNC(=O)OCc1ccccc1`, for which the results for the 50% effective dose (ED50) with Mus musculus [7] and in the series listed under Rattus norvegicus [8] were more than 100 mg/kg and less than 30 mg/kg, respectively. Further, the TD50 in [5] was less than 300 mg/kg; in series [9], more than 100 mg/kg.
Regarding `CN(C)C(=O)CNC(=O)OCc1ccccc1`, the TD50 in series [2] is 130 mg/kg; in series [4], more than 30 mg/kg.
As for `CCNC(=O)CNC(=O)OCc1ccccc1`, the TD50 is less than 300 mg/kg in [10] and more than 500 mg/kg in series [4].
In turn, `COCC(NC(C)=O)C(=O)N(C)Cc1ccccc1` (configuration not stated) showed an ED50 with Mus musculus [6] of less than 300 mg/kg.
Consider `CCN(CC)C(=O)CNC(=O)OCc1ccccc1`, for which the TD50 was 91 mg/kg in series [2] and more than 30 mg/kg in [4].
On to `CCN(CC)C(=O)C(C)NC(=O)OCc1ccccc1` (configuration not stated), for which the ED50 in the series with Mus musculus [1] was 74 mg/kg; in the series listed under Rattus norvegicus [3], less than 30 mg/kg. For the same molecule, the TD50 in [2] was 130 mg/kg; in [4] it was more than 30 mg/kg.

These data come from ChEMBL document CHEMBL1149163, “Application of predictive QSAR models to database mining: identification and experimental validation of novel anticonvulsant compounds” (J Med Chem, 2004).
